These results are taken from patent US10174037B2, “Dihydropyrazolopyrimidinone compounds as PDE2 inhibitors” (Merck Sharp & Dohme Corp., priority 2015, dated 2019).

One assay deals with human PDE2A1 (Homo sapiens (Human), UniProt O00408). Put plainly: PDE selectivity IMAP FP assay, human PDE2A1. In kind it is biochemical. Conditions: Human PDE2. Put shortly:
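Compound titrations run against PDE2 in Tris HCl pH 7.2 buffer with MgCl2 and DTT for 60 min at room temperature, using 50 nM FAM-cAMP plus 1000 nM cGMP and enzyme giving 20% conversion.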

The next assay has as its target Rhesus PDE2A3 (Macaca mulatta, UniProt B3VTJ2). Put plainly: PDE2 fluorescence polarization (IMAP FP) assay, rhesus PDE2A3. In kind it is biochemical, rhesus macaque.
[1] abbreviates: Lab A, read-out: Human PDE2 Ki (nM) Lab A.
Where [2] appears, read: Lab A, read-out: Rhesus PDE2 Ki (nM) Lab A.
Where [3] appears, read: Lab B, read-out: Human PDE2 Ki (nM) Lab B.
[4] abbreviates: Lab B, read-out: Rhesus PDE2 Ki (nM) Lab B.

Structures are written as SMILES. Read-outs that look alike come from different tables or passages of the source.

human PDE2A1, sequence (O00408 other isoform, or with tags, fused parts or gaps): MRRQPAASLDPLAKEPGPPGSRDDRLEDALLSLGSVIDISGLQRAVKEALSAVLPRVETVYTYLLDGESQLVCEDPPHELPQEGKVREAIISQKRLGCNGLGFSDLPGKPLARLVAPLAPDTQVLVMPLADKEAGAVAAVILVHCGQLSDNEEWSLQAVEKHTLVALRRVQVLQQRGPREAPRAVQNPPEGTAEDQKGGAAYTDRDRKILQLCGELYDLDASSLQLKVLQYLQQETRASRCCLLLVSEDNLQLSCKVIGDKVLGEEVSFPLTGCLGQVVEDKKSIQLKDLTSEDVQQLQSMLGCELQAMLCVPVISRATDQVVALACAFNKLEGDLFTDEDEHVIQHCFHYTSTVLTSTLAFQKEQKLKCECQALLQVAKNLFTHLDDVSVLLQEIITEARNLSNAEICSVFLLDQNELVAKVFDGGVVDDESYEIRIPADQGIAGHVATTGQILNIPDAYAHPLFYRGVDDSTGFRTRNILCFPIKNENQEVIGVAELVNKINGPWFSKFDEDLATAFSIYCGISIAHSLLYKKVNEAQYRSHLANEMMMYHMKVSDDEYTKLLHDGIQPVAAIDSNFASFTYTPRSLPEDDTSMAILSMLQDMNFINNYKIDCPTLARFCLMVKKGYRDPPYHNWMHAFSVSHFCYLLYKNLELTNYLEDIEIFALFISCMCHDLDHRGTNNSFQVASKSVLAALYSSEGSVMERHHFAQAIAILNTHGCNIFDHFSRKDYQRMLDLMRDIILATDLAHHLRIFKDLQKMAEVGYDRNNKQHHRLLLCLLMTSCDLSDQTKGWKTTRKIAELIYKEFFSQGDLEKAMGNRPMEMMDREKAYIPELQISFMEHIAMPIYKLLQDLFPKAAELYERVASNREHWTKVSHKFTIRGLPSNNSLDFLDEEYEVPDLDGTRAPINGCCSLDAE
Rhesus PDE2A3, sequence (B3VTJ2 1-941): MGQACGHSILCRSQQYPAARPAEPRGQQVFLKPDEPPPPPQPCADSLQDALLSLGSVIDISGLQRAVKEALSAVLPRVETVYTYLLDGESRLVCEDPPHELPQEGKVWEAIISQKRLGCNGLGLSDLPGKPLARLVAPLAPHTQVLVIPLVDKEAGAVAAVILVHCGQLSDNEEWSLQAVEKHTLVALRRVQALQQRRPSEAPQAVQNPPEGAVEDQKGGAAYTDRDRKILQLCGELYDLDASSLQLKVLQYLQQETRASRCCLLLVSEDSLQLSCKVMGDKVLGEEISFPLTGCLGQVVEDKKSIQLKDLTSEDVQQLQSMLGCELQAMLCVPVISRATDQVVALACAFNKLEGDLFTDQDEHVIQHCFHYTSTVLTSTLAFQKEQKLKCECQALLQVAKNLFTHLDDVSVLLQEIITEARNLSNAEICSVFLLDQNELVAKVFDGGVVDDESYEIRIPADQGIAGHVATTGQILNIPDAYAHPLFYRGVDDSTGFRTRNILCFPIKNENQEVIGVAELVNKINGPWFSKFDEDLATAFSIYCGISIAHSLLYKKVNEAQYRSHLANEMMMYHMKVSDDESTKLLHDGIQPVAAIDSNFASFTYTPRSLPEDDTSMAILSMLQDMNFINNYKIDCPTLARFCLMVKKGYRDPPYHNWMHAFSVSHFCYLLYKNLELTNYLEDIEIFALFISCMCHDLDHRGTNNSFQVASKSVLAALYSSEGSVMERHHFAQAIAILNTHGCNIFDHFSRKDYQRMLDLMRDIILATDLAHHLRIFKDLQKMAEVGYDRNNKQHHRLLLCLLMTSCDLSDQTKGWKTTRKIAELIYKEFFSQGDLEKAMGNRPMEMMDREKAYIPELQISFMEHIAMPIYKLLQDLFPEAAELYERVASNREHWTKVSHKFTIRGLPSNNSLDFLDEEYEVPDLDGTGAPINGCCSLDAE

For `Cc1nn(C(C)c2ccc(C(F)(F)F)cc2)c2nc(N(C)C)[nH]c(=O)c12` (centres unmarked) [Example 270, 6-(Dimethylamino)-3-methyl-1-{1-[4-(trifluoromethyl)phenyl]ethyl}-1,5-dihydro-4H-pyrazolo[3,4-d]pyrimidin-4-one], the results for the inhibition constant (Ki) on human PDE2A1 (setting [1]) and on Rhesus PDE2A3 (setting [2]) were 3.9 nM and 6 nM, respectively.
Regarding `Cc1nn(C(C)c2ccc(C(F)(F)F)cc2)c2nc(O)[nH]c(=O)c12` (centres unmarked) [Example 58, 6-Hydroxy-3-methyl-1-{1-[4-(trifluoromethyl)phenyl]ethyl}-1,5-dihydro-4H-pyrazolo[3,4-d]pyrimidin-4-one], the inhibitory constant (Ki) – broadly, a measure of affinity in units of concentration, obtained from inhibition or displacement – at human PDE2A1 (setting [1]) amounted to 49 nM; at Rhesus PDE2A3 (setting [2]), 69 nM.
For the compound `Cc1ccc(C(C)n2nc(CF)c3c(=O)[nH]c(O)nc32)cc1` (centres unmarked) [Example 37, 3-(Fluoromethyl)-6-hydroxy-1-(1-p-tolylethyl)-1H-pyrazolo[3,4-d]pyrimidin-4(5H)-one], the figures for the inhibition constant Ki at human PDE2A1 (setting [1]) and at Rhesus PDE2A3 (setting [2]) were 44 nM and 85 nM, respectively.
In the case of `CC(c1ccc(OC(F)(F)F)cc1)n1nc(C(F)F)c2c(=O)[nH]c(O)nc21` (single isomer, unassigned) [Example 274, (S)- or (R)-3-(Difluoromethyl)-6-hydroxy-1-(1-(4-(trifluoromethoxy)phenyl)ethyl)-1H-pyrazolo[3,4-d]pyrimidin-4(5H)-one], the Ki amounted to 4 nM at human PDE2A1 (setting [3]) and 3.2 nM at Rhesus PDE2A3 (setting [4]).
Turning to `O=c1[nH]c(O)nc2c1c(CF)nn2C(c1ccc(OC(F)(F)F)c(F)c1)C1CC1` (single isomer, unassigned) [Example 45], the Ki worked out at 28 nM at human PDE2A1 (setting [3]) and 29 nM on Rhesus PDE2A3 (setting [4]).
`CC(C)C(c1ccc(C(F)(F)F)c(F)c1)n1nc(CO)c2c(=O)[nH]c(N(C)C)nc21` (single isomer, unassigned) [Example 142, (R)- or (S)-6-(Dimethylamino)-1-(1-(3-fluoro-4-(trifluoromethyl)phenyl)-2-methylpropyl)-3-(hydroxymethyl)-1H-pyrazolo[3,4-d]pyrimidin-4(5H)-one]: the Ki on human PDE2A1 (setting [3]) was 0.19 nM; at Rhesus PDE2A3 (setting [4]), 0.29 nM.
As to `CC(c1ccc(OC(F)(F)F)cc1)n1nc(CF)c2c(=O)[nH]c(N(C)C)nc21` (single isomer, unassigned) [Example 165, (S)- or (R)-6-(Dimethylamino)-3-(fluoromethyl)-1-(1-(4-(trifluoromethoxy)phenyl)ethyl)-1H-pyrazolo[3,4-d]pyrimidin-4(5H)-one], the figures for the inhibitory constant (Ki) at human PDE2A1 (setting [3]) and on Rhesus PDE2A3 (setting [4]) were 0.33 nM and 0.28 nM, respectively.
Consider `CC(C)C(c1ccc(C(C)(F)F)cc1F)n1nc(CO)c2c(=O)[nH]c(N(C)C)nc21` (single isomer, unassigned) [Example 118, (R)- or (S)-1-(1-(4-(1,1-Difluoroethyl)-2-fluorophenyl)-2-methylpropyl)-6-(dimethylamino)-3-(hydroxymethyl)-1H-pyrazolo[3,4-d]pyrimidin-4(5H)-one], for which the Ki worked out at 0.42 nM at human PDE2A1 (setting [3]) and 0.44 nM at Rhesus PDE2A3 (setting [4]).
Regarding `CC(C)[C@@H](c1ccc(C(C)(C)C)cc1)n1nc(CF)c2c(=O)[nH]c(O)nc21` [Example 49, (S)-1-(1-(4-tert-Bulylphenyl)-2-melhylpropyl)-3-(fluoromethyl)-6-hydroxy-1H-pyrazolo[3,4-d]pyrimidin-4(5H)-one], the Ki on human PDE2A1 (setting [3]) is 2.3 nM; at Rhesus PDE2A3 (setting [4]), 2.5 nM.
Turning to `CCC(c1ccc(CC(F)(F)F)c(F)c1)n1nc(CO)c2c(=O)[nH]c(N(C)C)nc21` (single isomer, unassigned) [Example 97, (S)- or (R)-6-(Dimethylamino)-1-(1-(3-fluoro-4-(2,2,2-trifluoroethyl)phenyl)propyl)-3-(hydroxymethyl)-1H-pyrazolo[3,4-d]pyrimidin-4(5H)-one], the Ki on human PDE2A1 (setting [3]) stood at 0.09 nM; on Rhesus PDE2A3 (setting [4]), 0.11 nM.
For the compound `CN(C)c1nc2c(c(CO)nn2C(c2ccc(C(F)(F)F)cc2)C2CC2)c(=O)[nH]1` (single isomer, unassigned) [Example 74, (R)- or (S)-1-(Cyclopropyl(4-(trifluoromethyl)phenyl)methyl)-6-(dimethylamino)-3-(hydroxymethyl)-1H-pyrazolo[3,4-d]pyrimidin-4(5H)-one], the inhibition constant Ki on human PDE2A1 (setting [3]) stood at 0.17 nM; at Rhesus PDE2A3 (setting [4]), 0.15 nM.
For `CC(C)C(c1ccc(C(C)(F)F)cc1)n1nc(CO)c2c(=O)[nH]c(N(C)C)nc21` (single isomer, unassigned) [Example 138, (R)- or (S)-1-(1-(4-(1,1-Difluoroethyl)phenyl)-2-methylpropyl)-6-(dimethylamino)-3-(hydroxymethyl)-1H-pyrazolo[3,4-d]pyrimidin-4(5H)-one], the inhibitory constant (Ki) at human PDE2A1 (setting [3]) amounted to 0.19 nM; on Rhesus PDE2A3 (setting [4]), 0.41 nM.
Take `O=c1[nH]c(O)nc2c1c(CF)nn2C(c1ccc(C(F)(F)F)cc1)C1CC1` (centres unmarked) [Example 39, 1-(Cyclopropyl(4-(trifluoromethyl)phenyl)methyl)-3-(fluoromethyl)-6-hydroxy-1H-pyrazolo[3,4-d]pyrimidin-4(5H)-one]: the Ki is 2.2 nM on human PDE2A1 (setting [1]), 6.3 nM at human PDE2A1 (setting [3]), 3.6 nM on Rhesus PDE2A3 (setting [2]) and 5.5 nM at Rhesus PDE2A3 (setting [4]).
For `CC(c1ccc(CC(F)(F)F)c(F)c1)n1nc(CO)c2c(=O)[nH]c(N(C)C)nc21` (single isomer, unassigned) [Example 101, (S)- or (R)-6-(Dimethylamino)-1-(1-(3-fluoro-4-(2,2,2-trifluoroethyl)phenyl)ethyl)-3-(hydroxymethyl)-1H-pyrazolo[3,4-d]pyrimidin-4(5H)-one], the Ki amounted to 0.29 nM at human PDE2A1 (setting [3]) and 0.35 nM at Rhesus PDE2A3 (setting [4]).
Consider `CC(c1ccc(C(C)(C)C)cc1)n1nc(CO)c2c(=O)[nH]c(N(C)C)nc21` (single isomer, unassigned) [Example 66, (R)- or (S)-1-(1-(4-tert-Butylphenyl)ethyl)-6-(dimethylamino)-3-(hydroxymethyl)-1H-pyrazolo[3,4-d]pyrimidin-4(5H)-one], for which the figures for the Ki on human PDE2A1 (setting [3]) and on Rhesus PDE2A3 (setting [4]) were 6.1 nM and 12 nM, respectively.
`CC(c1ccc(C(F)(F)F)c(F)c1)n1nc(CF)c2c(=O)[nH]c(N(C)C)nc21` (single isomer, unassigned) [Example 168, (R)- or (S)-6-(Dimethylamino)-1-(1-(3-fluoro-4-(trifluoromethyl)phenyl)ethyl)-3-(fluoromethyl)-1H-pyrazolo[3,4-d]pyrimidin-4(5H)-one]: the Ki at human PDE2A1 (setting [3]) stood at 5.3 nM; at Rhesus PDE2A3 (setting [4]), 8.1 nM.
As for `CC(C)C(c1ccc(OC(F)F)cc1)n1nc(CO)c2c(=O)[nH]c(N(C)C)nc21` (single isomer, unassigned) [Example 120], the Ki on human PDE2A1 (setting [3]) amounted to 0.21 nM; at Rhesus PDE2A3 (setting [4]) it was 0.28 nM.
For `CC(c1ccc(C(C)(C)C)cc1)n1nc(CC(F)(F)F)c2c(=O)[nH]c(O)nc21` (single isomer, unassigned) [Example 236, (R)- or (S)-1-(1-(4-tert-Butylphenyl)ethyl)-6-hydroxy-3-(2,2,2-trifluoroethyl)-1H-pyrazolo[3,4-d]pyrimidin-4(5H)-one] the same measures were 3.4 nM and 5 nM.
As to `CC(c1ccc(C(F)(F)F)c(F)c1)n1nc(CO)c2c(=O)[nH]c(N(C)C)nc21` (single isomer, unassigned) [Example 68, (R)- or (S)-6-(Dimethylamino)-1-(1-(3-fluoro-4-(trifluoromethyl)phenyl)ethyl)-3-(hydroxymethyl)-1H-pyrazolo[3,4-d]pyrimidin-4(5H)-one], the Ki was 7.1 nM at human PDE2A1 (setting [3]) and 11 nM at Rhesus PDE2A3 (setting [4]).
For the compound `CC(c1ccc(CC(F)(F)F)c(F)c1)n1nc(CO)c2c(=O)[nH]c(N(C)C)nc21` (single isomer, unassigned) [Example 100, (R)- or (S)-6-(Dimethylamino)-1-(1-(3-fluoro-4-(2,2,2-trifluoroethyl)phenyl)ethyl)-3-(hydroxymethyl)-1H-pyrazolo[3,4-d]pyrimidin-4(5H)-one], the inhibition constant (Ki) on human PDE2A1 (setting [3]) worked out at 0.88 nM; at Rhesus PDE2A3 (setting [4]) it was 1.1 nM.
For the compound `CC(c1ccc(C(F)F)c(F)c1)n1nc(CF)c2c(=O)[nH]c(N(C)C)nc21` (single isomer, unassigned) [Example 196, (R)- or (S)-1-(1-(4-(Difluoromethyl)-3-fluorophenyl)ethyl)-6-(dimethylamino)-3-(fluoromethyl)-1H-pyrazolo[3,4-d]pyrimidin-4(5H)-one], the inhibition constant (Ki) on human PDE2A1 (setting [3]) worked out at 0.31 nM; at Rhesus PDE2A3 (setting [4]), 0.59 nM.
On to `CC(c1ccc(OC(F)(F)F)cc1)n1nc(CO)c2c(=O)[nH]c(N(C)C)nc21` (single isomer, unassigned) [Example 149, (S)- or (R)-6-(Dimethylamino)-3-(hydroxymethyl)-1-(1-(4-(trifluoromethoxy)phenyl)ethyl)-1H-pyrazolo[3,4-d]pyrimidin-4(5H)-one], for which the inhibitory constant (Ki) at human PDE2A1 (setting [3]) was found to be 0.51 nM; on Rhesus PDE2A3 (setting [4]), 0.46 nM.
For `CC(C)C(c1ccc(C(F)(F)F)cc1F)n1nc(CO)c2c(=O)[nH]c(N(C)C)nc21` (single isomer, unassigned) [Example 133, (S)- or (R)-6-(Dimethylamino)-1-(1-(2-fluoro-4-(trifluoromethyl)phenyl)-2-methylpropyl)-3-(hydroxymethyl)-1H-pyrazolo[3,4-d]pyrimidin-4(5H)-one] the same measures were 0.45 nM and 0.6 nM.
`CN(C)c1nc2c(c(CF)nn2C(c2ccc(OC(F)F)c(F)c2)C2CC2)c(=O)[nH]1` (single isomer, unassigned) [Example 188, (R)- or (S)-1-(Cyclopropyl(4-(difluoromethoxy)-3-fluorophenyl)methyl)-6-(dimethylamino)-3-(fluoromethyl)-1H-pyrazolo[3,4-d]pyrimidin-4(5H)-one]: the figures for the inhibitory constant (Ki) on human PDE2A1 (setting [3]) and on Rhesus PDE2A3 (setting [4]) were 0.35 nM and 0.41 nM, respectively.
